Assay in all cases: KINOMEscan (ScanMAX) kinase profiling
What all share (type): binding

Assay [1] has as its target T1, panel of 468 kinases (Homo sapiens, UniProt P07332).
T1 construct: purchased KINOMEscan (ScanMAX) service
The settings on record: FES; 1 μM; read-out: % control.

In assay [2] the target is T2, panel of 468 kinases (Homo sapiens, UniProt P11802).
T2 construct: purchased KINOMEscan (ScanMAX) service
The settings on record: 1 μM, read-out: % control.

Assay [3] concerns the target T3, panel of 468 kinases (Homo sapiens, UniProt P33981).
T3 construct: purchased KINOMEscan (ScanMAX) service
T3 sequence (P33981 1-857): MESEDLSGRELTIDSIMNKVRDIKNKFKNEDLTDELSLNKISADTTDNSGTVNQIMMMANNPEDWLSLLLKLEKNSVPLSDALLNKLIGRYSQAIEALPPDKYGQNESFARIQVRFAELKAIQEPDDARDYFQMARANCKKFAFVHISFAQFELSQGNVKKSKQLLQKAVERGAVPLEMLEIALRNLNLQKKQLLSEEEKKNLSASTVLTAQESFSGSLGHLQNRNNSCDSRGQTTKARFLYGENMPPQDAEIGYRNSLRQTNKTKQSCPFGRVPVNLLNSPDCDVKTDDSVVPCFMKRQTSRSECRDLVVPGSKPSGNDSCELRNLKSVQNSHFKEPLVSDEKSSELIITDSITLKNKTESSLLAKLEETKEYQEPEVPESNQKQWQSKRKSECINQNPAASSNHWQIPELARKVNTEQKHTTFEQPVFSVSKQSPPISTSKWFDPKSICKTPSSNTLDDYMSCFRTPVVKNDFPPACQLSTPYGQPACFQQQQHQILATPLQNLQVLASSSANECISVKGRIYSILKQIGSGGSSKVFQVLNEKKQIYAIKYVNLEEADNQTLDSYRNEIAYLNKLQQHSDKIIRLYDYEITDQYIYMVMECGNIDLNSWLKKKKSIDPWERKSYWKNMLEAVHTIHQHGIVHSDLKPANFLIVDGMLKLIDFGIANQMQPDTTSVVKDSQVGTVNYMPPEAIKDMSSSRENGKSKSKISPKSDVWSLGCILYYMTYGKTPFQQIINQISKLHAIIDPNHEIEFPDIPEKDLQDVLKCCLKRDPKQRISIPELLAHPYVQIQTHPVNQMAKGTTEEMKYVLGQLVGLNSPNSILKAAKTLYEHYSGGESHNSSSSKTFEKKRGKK
The settings on record: TTK; 1 μM; read-out: % control.

In assay [4] the target is T4, panel of 468 kinases (Homo sapiens, UniProt Q96L34).
T4 construct: purchased KINOMEscan (ScanMAX) service
T4 sequence (Q96L34 1-752): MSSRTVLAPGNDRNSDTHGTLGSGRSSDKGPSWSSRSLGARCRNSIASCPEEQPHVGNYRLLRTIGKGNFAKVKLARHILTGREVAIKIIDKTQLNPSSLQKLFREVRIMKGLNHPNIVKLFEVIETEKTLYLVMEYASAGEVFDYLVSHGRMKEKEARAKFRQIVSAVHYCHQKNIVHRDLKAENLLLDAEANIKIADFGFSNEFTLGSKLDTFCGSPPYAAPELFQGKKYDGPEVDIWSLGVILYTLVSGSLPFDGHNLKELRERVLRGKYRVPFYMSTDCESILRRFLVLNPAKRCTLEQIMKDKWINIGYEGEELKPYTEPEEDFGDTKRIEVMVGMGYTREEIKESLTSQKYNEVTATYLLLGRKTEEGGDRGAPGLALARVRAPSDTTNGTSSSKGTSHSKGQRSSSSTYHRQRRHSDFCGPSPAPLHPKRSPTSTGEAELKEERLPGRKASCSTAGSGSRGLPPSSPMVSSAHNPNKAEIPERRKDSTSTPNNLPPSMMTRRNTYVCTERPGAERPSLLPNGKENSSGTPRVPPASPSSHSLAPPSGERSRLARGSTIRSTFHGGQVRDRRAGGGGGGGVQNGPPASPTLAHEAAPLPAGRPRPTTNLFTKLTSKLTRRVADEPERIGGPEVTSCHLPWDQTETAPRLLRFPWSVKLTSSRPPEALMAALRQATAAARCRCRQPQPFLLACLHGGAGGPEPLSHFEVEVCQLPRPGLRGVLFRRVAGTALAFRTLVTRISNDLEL
The settings on record: MARK4; 1 μM; read-out: % control.

The target in assay [5] is T5, panel of 468 kinases (Homo sapiens, UniProt Q9H2K8).
T5 construct: purchased KINOMEscan (ScanMAX) service
T5 sequence (Q9H2K8 1-898): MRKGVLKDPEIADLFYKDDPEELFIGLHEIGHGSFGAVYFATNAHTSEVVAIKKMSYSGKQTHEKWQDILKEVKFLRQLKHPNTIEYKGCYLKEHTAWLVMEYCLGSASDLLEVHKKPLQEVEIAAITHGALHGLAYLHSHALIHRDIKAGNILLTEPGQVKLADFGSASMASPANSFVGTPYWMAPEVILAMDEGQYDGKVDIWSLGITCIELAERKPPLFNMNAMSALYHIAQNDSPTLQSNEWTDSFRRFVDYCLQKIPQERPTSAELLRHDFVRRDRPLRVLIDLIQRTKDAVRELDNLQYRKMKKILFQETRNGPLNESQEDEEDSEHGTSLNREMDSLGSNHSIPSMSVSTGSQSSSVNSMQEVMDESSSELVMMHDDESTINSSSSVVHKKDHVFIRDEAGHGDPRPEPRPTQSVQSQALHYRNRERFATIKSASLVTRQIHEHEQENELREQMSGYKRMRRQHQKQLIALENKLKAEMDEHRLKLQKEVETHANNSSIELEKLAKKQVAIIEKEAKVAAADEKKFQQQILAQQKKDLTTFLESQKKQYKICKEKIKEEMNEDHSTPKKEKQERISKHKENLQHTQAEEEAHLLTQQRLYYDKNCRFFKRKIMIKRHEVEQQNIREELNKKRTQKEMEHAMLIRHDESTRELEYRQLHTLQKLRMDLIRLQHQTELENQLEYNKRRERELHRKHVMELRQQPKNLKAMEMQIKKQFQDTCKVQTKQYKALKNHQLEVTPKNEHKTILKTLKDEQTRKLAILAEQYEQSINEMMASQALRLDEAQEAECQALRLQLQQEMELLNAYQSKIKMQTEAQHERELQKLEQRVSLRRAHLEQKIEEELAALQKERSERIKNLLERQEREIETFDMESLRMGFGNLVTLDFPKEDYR
The settings on record: TAOK3; 1 μM; read-out: % control.

Each structure is given as a SMILES string. Where two headings read alike, the source gives them in different places.

T2 sequence (P11802 whole entry): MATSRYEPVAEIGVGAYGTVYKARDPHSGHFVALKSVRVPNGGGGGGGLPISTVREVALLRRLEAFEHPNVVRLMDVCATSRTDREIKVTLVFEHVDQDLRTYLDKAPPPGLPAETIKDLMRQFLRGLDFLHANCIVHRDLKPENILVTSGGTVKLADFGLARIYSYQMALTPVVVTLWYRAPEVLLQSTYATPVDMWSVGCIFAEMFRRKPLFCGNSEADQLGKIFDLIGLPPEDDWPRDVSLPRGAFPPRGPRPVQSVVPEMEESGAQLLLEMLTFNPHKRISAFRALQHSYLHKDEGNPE
T1 sequence (P07332 whole entry): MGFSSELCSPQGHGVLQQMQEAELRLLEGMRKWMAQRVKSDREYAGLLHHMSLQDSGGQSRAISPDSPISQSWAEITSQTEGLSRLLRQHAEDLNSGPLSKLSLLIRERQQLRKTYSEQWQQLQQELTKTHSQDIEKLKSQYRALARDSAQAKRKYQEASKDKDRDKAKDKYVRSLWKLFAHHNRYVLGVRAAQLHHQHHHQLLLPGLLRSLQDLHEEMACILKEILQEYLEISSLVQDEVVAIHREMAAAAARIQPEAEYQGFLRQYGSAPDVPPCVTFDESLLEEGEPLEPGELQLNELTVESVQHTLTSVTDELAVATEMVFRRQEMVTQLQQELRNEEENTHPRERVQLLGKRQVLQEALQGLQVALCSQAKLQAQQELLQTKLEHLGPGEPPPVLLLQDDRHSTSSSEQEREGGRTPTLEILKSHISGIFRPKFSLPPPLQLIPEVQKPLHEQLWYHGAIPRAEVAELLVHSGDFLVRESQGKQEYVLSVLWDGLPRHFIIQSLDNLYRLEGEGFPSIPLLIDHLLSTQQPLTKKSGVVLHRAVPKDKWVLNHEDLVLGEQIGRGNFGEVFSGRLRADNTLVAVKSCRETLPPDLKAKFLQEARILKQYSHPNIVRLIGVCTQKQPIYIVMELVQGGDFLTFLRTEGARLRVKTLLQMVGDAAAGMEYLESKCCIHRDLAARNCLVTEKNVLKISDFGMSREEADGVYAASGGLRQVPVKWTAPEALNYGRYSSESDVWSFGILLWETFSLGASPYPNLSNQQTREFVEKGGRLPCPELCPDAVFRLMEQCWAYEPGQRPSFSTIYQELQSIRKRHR

As for `CNc1nc(Nc2ccc(C(=O)N3CCC(N4CCOCC4)CC3)c3c2OCO3)nc2[nH]cc(Cl)c12` [Compound 75, (7-((5-chloro-4-(methylamino)-7H-pyrrolo[2,3-d]pyrimidin-2-yl)amino)benzo[d][1,3]dioxol-4-yl)(4-morpholinopiperidin-1-yl)methanone], the remaining binding at 1 µM in assay [1] amounted to 81%; in assay [2] (CDK4-cyclinD1), 81%; in assay [2] (CDK4-cyclinD3), 100%; in assay [2] (CDK4), 80%; in assay [3], 0.6%; in assay [4] it was 96%. Moreover, the remaining binding at 1 µM in assay [5] came out at 83%.
Consider `CNc1nc(Nc2ccc(P3(=O)CCN(C4CCOCC4)CC3)cc2OC)nc2[nH]cc(Cl)c12` [Compound 77, 4-(4-((5-chloro-4-(methylamino)-7H-pyrrolo[2,3-d]pyrimidin-2-yl)amino)-3-methoxyphenyl)-1-(tetrahydro-2H-pyran-4-yl)-1,4-azaphosphinane 4-oxide], for which the remaining binding at 1 µM in assay [1] is 80%; in assay [2] (CDK4-cyclinD1), 87%; in assay [2] (CDK4-cyclinD3) it was 100%; in assay [2] (CDK4) it was 71%; in assay [3], 0.5%; in assay [4], 97%. Moreover, the remaining binding at 1 µM in assay [5] amounted to 84%.
With `CNc1nc(Nc2ccc(S(=O)(=O)N3CCC(N4CCOCC4)CC3)cc2OC)nc2[nH]cc(Cl)c12` [Compound 12, 5-chloro-N2-(2-methoxy-4-((4-morpholinopiperidin-1-yl)sulfonyl)phenyl)-N4-methyl-7H-pyrrolo[2,3-d]pyrimidine-2,4-diamine], the remaining binding at 1 µM in assay [1] is 100%; in assay [2] (CDK4-cyclinD1) it was 74%; in assay [2] (CDK4-cyclinD3), 100%; in assay [2] (CDK4), 68%; in assay [3] it was 1%; in assay [4] it was 98%. In addition, the remaining binding at 1 µM in assay [5] is 85%.

(Values after patent US12479847B2 (DANA-FARBER CANCER INSTITUTE, INC., priority 2019, dated 2025).)
